According to US12618062B2, “Display of molecules on silently genetically encoded nanoscale carriers for determining synergistic molecular interactions” (The Governors of the University of Alberta, priority 2017, dated 2026):

Molecular target: T1, Ulex Europaeus Agglutinin (UEA lectin) (Ulex europaeus, UniProt P22972)
T1 sequence (P22972 1-243): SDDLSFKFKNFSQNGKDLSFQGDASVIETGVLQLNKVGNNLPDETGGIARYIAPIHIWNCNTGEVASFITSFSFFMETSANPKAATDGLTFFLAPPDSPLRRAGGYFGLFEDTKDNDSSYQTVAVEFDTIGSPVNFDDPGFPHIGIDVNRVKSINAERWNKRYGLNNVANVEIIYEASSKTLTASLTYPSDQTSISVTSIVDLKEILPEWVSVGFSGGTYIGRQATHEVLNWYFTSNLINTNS
Assay: Pull-down of liquid glycan array and deep sequencing
Format: binding
Settings: array of 74 glycans; FIG. 6H
Source text: The washing step was repeated three times.

Substance: Fucα1-2Galb1-4[Fucα1-3]GlcNAcb-Phage [Te118]
- Enrichment in pull down by plant lectin UGA: enrichment not detected

Substance: GalNAcα1-3 [Fucα1-2]Galβ1-4G1cNAcβ-Phage [Te222]
- Enrichment in pull down by plant lectin UGA: enrichment not detected
